Source: PubChem BioAssay (NCI)
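Values below derive from 48-hour exposures of cells grown in 96-well plates, with endpoints linearly interpolated between the two concentrations bracketing the appropriate inhibition level. TGI is the concentration that stops growth completely.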

Legend:
Test in all cases: NCI tumour cell line growth inhibition, 48 h
HOP-62 NSCLC = test system: HOP-62 NSCLC
SN12C renal = test system: SN12C renal
SF-268 CNS = test system: SF-268 CNS
UACC-62 melanoma = test system: UACC-62 melanoma
RXF 393 renal = test system: RXF 393 renal
SF-295 CNS = test system: SF-295 CNS
OVCAR-4 ovarian = test system: OVCAR-4 ovarian
MOLT-4 leukemia = test system: MOLT-4 leukemia
HL-60(TB) leukemia = test system: HL-60(TB) leukemia
UO-31 renal = test system: UO-31 renal
U251 CNS = test system: U251 CNS
UACC-257 melanoma = test system: UACC-257 melanoma
LOX IMVI melanoma = test system: LOX IMVI melanoma
NCI-H226 lung = test system: NCI-H226 lung
SW-620 colon = test system: SW-620 colon
KM12 colon = test system: KM12 colon
EKVX NSCLC = test system: EKVX NSCLC
HT29 colon = test system: HT29 colon
NCI-H460 lung = test system: NCI-H460 lung
OVCAR-3 ovarian = test system: OVCAR-3 ovarian

Q: What does the source list for Cc1ccc(N=Nc2ccc(N)cc2C)c(S(N)(=O)=O)c1?
A: TGI (HOP-62 NSCLC): > 100 µM; TGI (SN12C renal): > 100 µM; TGI (SF-268 CNS): > 100 µM; TGI (UACC-62 melanoma): > 100 µM; TGI (RXF 393 renal): > 100 µM; TGI (SF-295 CNS): > 100 µM; TGI (OVCAR-4 ovarian): > 100 µM; TGI (MOLT-4 leukemia): > 100 µM; TGI (HL-60(TB) leukemia): > 100 µM; TGI (UO-31 renal): > 100 µM; TGI (U251 CNS): > 100 µM; TGI (UACC-257 melanoma): > 100 µM; TGI (LOX IMVI melanoma): > 100 µM; TGI (NCI-H226 lung): > 100 µM; TGI (SW-620 colon): > 100 µM; TGI (KM12 colon): > 100 µM; TGI (EKVX NSCLC): > 100 µM; TGI (HT29 colon): > 100 µM; TGI (NCI-H460 lung): > 100 µM; TGI (OVCAR-3 ovarian): > 100 µM

Q: For OC(c1cc(-c2ccc(Cl)cc2)nc2ccccc12)C1CCCCN1 (stereo unspecified), which TGI (HOP-62 NSCLC) is on record?
A: The TGI was 3.13 µM.

Q: What about the TGI (SN12C renal) of the same compound?
A: The TGI was 3.54 µM.

Q: And the TGI (SF-268 CNS)?
A: Its TGI is 4.51 µM.

Q: And the TGI (UACC-62 melanoma)?
A: Its TGI is 3.43 µM.

Q: And the TGI (RXF 393 renal)?
A: Its TGI is 0.315 µM.

Q: And the TGI (SF-295 CNS)?
A: The TGI was 3.67 µM.

Q: What about the TGI (OVCAR-4 ovarian) of the same compound?
A: Its TGI is 5.11 µM.

Q: What about the TGI (MOLT-4 leukemia) of the same compound?
A: Its TGI is 4.52 µM.

Q: What about the TGI (HL-60(TB) leukemia) of the same compound?
A: The TGI was 4.61 µM.

Q: And the TGI (UO-31 renal)?
A: The TGI was 2.45 µM.

Q: And the TGI (U251 CNS)?
A: Its TGI is 3.25 µM.

Q: And the TGI (UACC-257 melanoma)?
A: Its TGI is 9.71 µM.

Q: What about the TGI (LOX IMVI melanoma) of the same compound?
A: The TGI was 2.09 µM.

Q: What about the TGI (NCI-H226 lung) of the same compound?
A: Its TGI is 39 µM.

Q: And the TGI (SW-620 colon)?
A: The TGI was 3.69 µM.

Q: What about the TGI (KM12 colon) of the same compound?
A: The TGI was 5.42 µM.

Q: And the TGI (EKVX NSCLC)?
A: The TGI was 4.74 µM.

Q: What about the TGI (HT29 colon) of the same compound?
A: The TGI was 3.82 µM.

Q: What about the TGI (NCI-H460 lung) of the same compound?
A: Its TGI is 4.76 µM.

Q: And the TGI (OVCAR-3 ovarian)?
A: Its TGI is 3.98 µM.

Q: Which results are given for O=C(O)NCC1CCCCC1 (tested in a mixture with another compound)?
A: TGI (HOP-62 NSCLC): 33.8 µM; TGI (SN12C renal): 28.1 µM; TGI (SF-268 CNS): 38.4 µM; TGI (UACC-62 melanoma): 34.2 µM; TGI (RXF 393 renal): 45.9 µM; TGI (SF-295 CNS): 50.3 µM; TGI (OVCAR-4 ovarian): > 100 µM; TGI (MOLT-4 leukemia): > 100 µM; TGI (HL-60(TB) leukemia): 38.5 µM; TGI (UO-31 renal): > 100 µM; TGI (U251 CNS): 20.3 µM; TGI (UACC-257 melanoma): 63.2 µM; TGI (LOX IMVI melanoma): 28.6 µM; TGI (NCI-H226 lung): 41.2 µM; TGI (SW-620 colon): 52.4 µM; TGI (KM12 colon): 29.7 µM; TGI (EKVX NSCLC): > 100 µM; TGI (HT29 colon): 66.6 µM; TGI (NCI-H460 lung): 26.1 µM; TGI (OVCAR-3 ovarian): 19.8 µM

Q: What does the source list for C/C=C(\C)C(=O)OC1C(C)=C2C(C1OC(=O)CCCC)C(C)(OC(C)=O)CC(OC(=O)CCCC)C1(O)C2OC(=O)C1(C)O (stereo unspecified)?
A: TGI (HOP-62 NSCLC): 3.67 µM; TGI (SN12C renal): > 100 µM; TGI (SF-268 CNS): > 100 µM; TGI (UACC-62 melanoma): 13.2 µM; TGI (RXF 393 renal): > 100 µM; TGI (SF-295 CNS): > 100 µM; TGI (OVCAR-4 ovarian): > 100 µM; TGI (MOLT-4 leukemia): > 100 µM; TGI (HL-60(TB) leukemia): > 100 µM; TGI (UO-31 renal): 71.2 µM; TGI (U251 CNS): > 100 µM; TGI (UACC-257 melanoma): > 100 µM; TGI (LOX IMVI melanoma): 2.08 µM; TGI (NCI-H226 lung): > 25.8 µM; TGI (KM12 colon): > 42.5 µM; TGI (EKVX NSCLC): > 100 µM; TGI (HT29 colon): 9.72 µM; TGI (NCI-H460 lung): > 100 µM; TGI (OVCAR-3 ovarian): 2.62 µM

Q: What does the source list for Nc1c(C(=O)Nc2ccc(C3=NCCN3)cc2)cccc1C(=O)Nc1ccc(C2=NCCN2)cc1?
A: TGI (SN12C renal): > 100 µM; TGI (SF-268 CNS): > 100 µM; TGI (UACC-62 melanoma): > 100 µM; TGI (RXF 393 renal): > 100 µM; TGI (SF-295 CNS): > 100 µM; TGI (OVCAR-4 ovarian): > 100 µM; TGI (MOLT-4 leukemia): > 100 µM; TGI (HL-60(TB) leukemia): > 100 µM; TGI (UO-31 renal): > 100 µM; TGI (U251 CNS): > 100 µM; TGI (UACC-257 melanoma): > 100 µM; TGI (LOX IMVI melanoma): > 100 µM; TGI (NCI-H226 lung): > 100 µM; TGI (SW-620 colon): > 100 µM; TGI (KM12 colon): > 100 µM; TGI (HT29 colon): > 100 µM; TGI (NCI-H460 lung): > 100 µM; TGI (OVCAR-3 ovarian): > 100 µM

Q: For Cc1cc2sc(C)[n+](CCCOS(=O)(=O)[O-])c2cc1C, which TGI (HOP-62 NSCLC) is on record?
A: Its TGI is greater than 100 µM.

Q: And the TGI (SN12C renal)?
A: The TGI was greater than 100 µM.

Q: And the TGI (SF-268 CNS)?
A: The TGI was greater than 100 µM.

Q: And the TGI (UACC-62 melanoma)?
A: Its TGI is greater than 100 µM.

Q: What about the TGI (RXF 393 renal) of the same compound?
A: The TGI was greater than 100 µM.

Q: What about the TGI (SF-295 CNS) of the same compound?
A: Its TGI is greater than 100 µM.

Q: And the TGI (OVCAR-4 ovarian)?
A: The TGI was greater than 100 µM.

Q: And the TGI (MOLT-4 leukemia)?
A: The TGI was greater than 100 µM.

Q: And the TGI (HL-60(TB) leukemia)?
A: Its TGI is greater than 100 µM.

Q: What about the TGI (UO-31 renal) of the same compound?
A: The TGI was greater than 100 µM.

Q: What about the TGI (U251 CNS) of the same compound?
A: Its TGI is greater than 100 µM.

Q: What about the TGI (UACC-257 melanoma) of the same compound?
A: The TGI was greater than 100 µM.

Q: And the TGI (LOX IMVI melanoma)?
A: Its TGI is greater than 100 µM.

Q: And the TGI (NCI-H226 lung)?
A: Its TGI is greater than 100 µM.

Q: What about the TGI (SW-620 colon) of the same compound?
A: Its TGI is greater than 100 µM.

Q: And the TGI (KM12 colon)?
A: The TGI was greater than 100 µM.

Q: What about the TGI (EKVX NSCLC) of the same compound?
A: Its TGI is greater than 100 µM.

Q: What about the TGI (HT29 colon) of the same compound?
A: Its TGI is greater than 100 µM.

Q: And the TGI (NCI-H460 lung)?
A: Its TGI is greater than 100 µM.

Q: What about the TGI (OVCAR-3 ovarian) of the same compound?
A: Its TGI is greater than 100 µM.

Q: O=C(NC1C=Nc2ccc([N+](=O)[O-])cc2NC1=O)c1cc(Cl)cc([N+](=O)[O-])c1 (stereo unspecified) was tested. Which TGI (HOP-62 NSCLC) did it give?
A: The TGI was greater than 100 µM.

Q: And the TGI (SN12C renal)?
A: Its TGI is greater than 100 µM.

Q: And the TGI (SF-268 CNS)?
A: The TGI was greater than 100 µM.

Q: What about the TGI (UACC-62 melanoma) of the same compound?
A: The TGI was greater than 100 µM.

Q: What about the TGI (RXF 393 renal) of the same compound?
A: Its TGI is greater than 100 µM.

Q: And the TGI (SF-295 CNS)?
A: Its TGI is greater than 100 µM.

Q: What about the TGI (OVCAR-4 ovarian) of the same compound?
A: Its TGI is greater than 100 µM.

Q: And the TGI (MOLT-4 leukemia)?
A: The TGI was greater than 100 µM.

Q: And the TGI (HL-60(TB) leukemia)?
A: The TGI was greater than 100 µM.

Q: And the TGI (UO-31 renal)?
A: Its TGI is greater than 100 µM.

Q: What about the TGI (U251 CNS) of the same compound?
A: The TGI was greater than 100 µM.

Q: And the TGI (UACC-257 melanoma)?
A: The TGI was greater than 100 µM.

Q: What about the TGI (LOX IMVI melanoma) of the same compound?
A: The TGI was greater than 100 µM.

Q: And the TGI (NCI-H226 lung)?
A: Its TGI is greater than 100 µM.

Q: And the TGI (SW-620 colon)?
A: Its TGI is greater than 100 µM.

Q: What about the TGI (KM12 colon) of the same compound?
A: Its TGI is greater than 100 µM.

Q: And the TGI (EKVX NSCLC)?
A: The TGI was greater than 100 µM.

Q: And the TGI (HT29 colon)?
A: Its TGI is greater than 100 µM.

Q: And the TGI (NCI-H460 lung)?
A: The TGI was greater than 100 µM.
